In this assay the target is T1, SARM1 (50-724) (Homo sapiens, UniProt Q6SZW1).
T1 construct: Purified SARM1 (50-724) with a final concentration of 2 nM was pre-incubated with a test compound
T1 sequence (Q6SZW1 50-724): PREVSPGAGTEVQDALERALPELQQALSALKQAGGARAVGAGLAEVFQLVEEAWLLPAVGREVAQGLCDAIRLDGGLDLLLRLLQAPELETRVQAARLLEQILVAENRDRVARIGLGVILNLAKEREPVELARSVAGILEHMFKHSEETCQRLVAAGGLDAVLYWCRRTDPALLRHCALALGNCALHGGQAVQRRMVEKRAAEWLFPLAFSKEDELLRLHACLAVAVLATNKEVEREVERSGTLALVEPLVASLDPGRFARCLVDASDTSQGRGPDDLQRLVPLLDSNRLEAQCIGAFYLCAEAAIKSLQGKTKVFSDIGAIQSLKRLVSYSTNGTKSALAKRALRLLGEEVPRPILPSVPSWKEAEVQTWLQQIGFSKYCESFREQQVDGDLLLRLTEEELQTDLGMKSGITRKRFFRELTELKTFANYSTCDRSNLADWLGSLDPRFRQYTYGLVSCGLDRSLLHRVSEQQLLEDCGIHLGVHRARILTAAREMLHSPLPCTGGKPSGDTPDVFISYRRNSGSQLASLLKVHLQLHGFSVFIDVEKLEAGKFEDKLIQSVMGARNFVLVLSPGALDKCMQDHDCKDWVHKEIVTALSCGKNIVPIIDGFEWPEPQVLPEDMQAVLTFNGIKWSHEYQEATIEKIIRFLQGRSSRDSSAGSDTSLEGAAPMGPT
Nature of the assay: SARM1 (50-724) enzymatic assay (LC-MS/MS). In kind it is biochemical. The conditions noted are these: Purified SARM1 (50-724) 2 nM, NMN as activator, NAD+ as substrate, 1 h at room temperature, read-out: IC50 (SARM1 inhibitory activity). The essentials:
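Reaction buffer was Dulbecco's PBS. Compound and 2 nM human SARM1 (50-724) were pre-incubated 15 min at room temperature, then […] NAD^+ and 200 µM NMN activator were added for 1 h at room temperature. Acetonitrile (70%) stop, LC-MS/MS read-out, IC50 values.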

On to `NC(=O)Cn1cc(-c2cccc(F)c2Cl)c(-c2nc3cc(C(F)(F)F)ccc3[nH]2)cc1=O` [Compound 199, 2-(5-(2-chloro-3-fluorophenyl)-2-oxo-4-(5-(trifluoromethyl)-1H-benzo[d]imidazol-2-yl)pyridin-1(2H)-yl)acetamide], for which the IC50 (as a rule, the concentration that gives 50% inhibition) was at most 100 nM.

As to `FC(F)(F)c1ccc2[nH]c(-n3nncc3-c3cccc(Cl)c3Cl)nc2c1` [Compound 315, 2-(5-(2,3-dichlorophenyl)-1H-1,2,3-triazol-1-yl)-5-(trifluoromethyl)-1H-benzo[d]imidazole], the IC50 is at most 100 nM.

Regarding `CS(=O)(=O)Cc1nnc(-c2nc3cc(C(F)(F)F)cc(F)c3[nH]2)n1-c1cccc(Cl)c1Cl` (single isomer, unassigned) [Compound 187, 2-(4-(2,3-Dichlorophenyl)-5-((methylsulfonyl)methyl)-4H-1,2,4-triazol-3-yl)-7-fluoro-5-(trifluoromethyl)-1H-benzo[d]imidazole], the IC50 was at most 100 nM.

Consider `CC1(c2ccc3[nH]c(-c4nncn4-c4cccc(Cl)c4Cl)nc3c2)CCO1` (stereo not drawn) [Compound 154, 2-(4-(2,3-dichlorophenyl)-4H-1,2,4-triazol-3-yl)-5-(2-methyloxetan-2-yl)-1H-benzo[d]imidazole], for which the IC50 was at most 100 nM.

As to `Cc1cnn(C)c1-c1ccc2[nH]c(-c3nncn3-c3cccc(Cl)c3Cl)nc2c1` [Example 81, 2-(4-(2,3-dichlorophenyl)-4H-1,2,4-triazol-3-yl)-5-(1,4-dimethyl-1H-pyrazol-5-yl)-1H-benzo[d]imidazole], the IC50 lay in the range of 100 to 500 nM.

Regarding `CP(C)(=O)c1ccc(Cl)c(-n2cnnc2-c2nc3cc(C(F)(F)F)ccc3[nH]2)c1` [Compound 244, (4-chloro-3-(3-(5-(trifluoromethyl)-1H-benzo[d]imidazol-2-yl)-4H-1,2,4-triazol-4-yl)phenyl)dimethylphosphine oxide], the IC50 is over 1000 nM.

Regarding `Cc1ccc2[nH]c(-c3nncn3-c3cccc(Cl)c3Cl)nc2c1C` [Example 93, 2-(4-(2,3-dichlorophenyl)-4H-1,2,4-triazol-3-yl)-4,5-dimethyl-1H-benzo[d]imidazole], the IC50 is at most 100 nM.

Take `O=c1ccc(C(F)(F)F)c(-n2cnnc2-c2nc3cc(C(F)(F)F)ccc3[nH]2)[nH]1` [Compound 280, 5-(trifluoromethyl)-6-(3-(5-(trifluoromethyl)-1H-benzo[d]imidazol-2-yl)-4H-1,2,4-triazol-4-yl)pyridin-2(1H)-one]: the IC50 is at most 100 nM.

Turning to `Cc1ccc2[nH]c(-n3c(C4CCCC4)n[nH]c3=O)nc2c1` [Compound 12, 5-cyclopentyl-4-(5-methyl-1H-benzo[d]imidazol-2-yl)-2,4-dihydro-3H-1,2,4-triazol-3-one], the IC50 is over 1000 nM.

On to `O=C(O)c1cc(-n2cnnc2-c2nc3cc(C(F)(F)F)ccc3[nH]2)c(OC(F)(F)F)cn1` [Compound 266, 5-(trifluoromethoxy)-4-(3-(5-(trifluoromethyl)-1H-benzo[d]imidazol-2-yl)-4H-1,2,4-triazol-4-yl)picolinic acid], for which the IC50 was at most 100 nM.

Consider `CC(c1ccncc1)c1cc(F)c2[nH]c(-c3nncn3-c3cccc(F)c3Br)nc2c1` (stereo not drawn) [Compound 462, 2-(4-(2-bromo-3-fluorophenyl)-4H-1,2,4-triazol-3-yl)-7-fluoro-5-(1-(pyridin-4-yl)ethyl)-1H-benzo[d]imidazole], for which the IC50 is at most 100 nM.

Take `Fc1cc(C(F)(F)F)cc2nc(-c3nncn3-c3cc(C(F)F)ccc3Cl)[nH]c12` [Compound 200, 2-(4-(2-chloro-5-(difluoromethyl)phenyl)-4H-1,2,4-triazol-3-yl)-7-fluoro-5-(trifluoromethyl)-1H-benzo[d]imidazole]: the IC50 is at most 100 nM.

`Clc1cccc(-n2cnnc2-c2nc3cc(-c4cnn[nH]4)ccc3[nH]2)c1Cl` [Example 56, 2-(4-(2,3-dichlorophenyl)-4H-1,2,4-triazol-3-yl)-5-(1H-1,2,3-triazol-5-yl)-1H-benzo[d]imidazole]: the IC50 was in the range of 100 to 500 nM.

For `CCc1ccc2[nH]c(-c3nncn3-c3cnccc3C(F)(F)F)nc2c1` [Compound 277, 5-ethyl-2-(4-(4-(trifluoromethyl)pyridin-3-yl)-4H-1,2,4-triazol-3-yl)-1H-benzo [d]imidazole], the IC50 was at most 100 nM.

`Oc1cc(F)c2[nH]c(-c3nncn3-c3cnccc3C(F)(F)F)nc2c1` [Compound 327, 7-fluoro-2-(4-(4-(trifluoromethyl)pyridin-3-yl)-4H-1,2,4-triazol-3-yl)-1H-benzo[d]imidazol-5-ol]: the half-inhibitory concentration (IC50) is at most 100 nM.

Turning to `CC(CN(C)C)c1ccc2[nH]c(-c3nncn3-c3cnccc3C(F)(F)F)nc2c1` (stereo not drawn) [Compound 365], the IC50 was over 1000 nM.

Take `FC(F)(F)c1ccc2[nH]c(C3COCCN3c3cccc(Cl)c3Cl)nc2c1` (stereo not drawn) [Compound 363, 4-(2,3-dichlorophenyl)-3-[5-(trifluoromethyl)-1H-benzimidazol-2-yl]morpholine]: the IC50 fell in the range of 500 to 1000 nM.

`Cn1cc(-c2nc(Cl)c(Cl)s2)c(-c2nc3cc(C(F)(F)F)ccc3[nH]2)cc1=O` [Compound 97]: the IC50 is over 1000 nM.

Consider `FC(F)(F)c1cnc2[nH]c(-c3nncn3-c3cnccc3C(F)(F)F)cc2c1` [Compound 287, 5-(trifluoromethyl)-2-(4-(4-(trifluoromethyl)pyridin-3-yl)-4H-1,2,4-triazol-3-yl)-1H-pyrrolo[2,3-b]pyridine], for which the concentration for half-maximal inhibition (IC50) is at most 100 nM.

`OC1(c2ccc3[nH]c(-c4nncn4-c4cccc(Cl)c4Cl)nc3c2)CCC1` [Example 111]: the IC50 was at most 100 nM.

Consider `FC(F)(F)c1ccc2[nH]c(C3CSCCN3c3ccccc3)nc2c1` (stereo not drawn) [Compound 361, 4-phenyl-3-[5-(trifluoromethyl)-1H-benzimidazol-2-yl]thiomorpholine], for which the IC50 is over 1000 nM.

For the molecule `O=c1cc(-n2cnnc2-c2cc3cc(C(F)(F)F)cc(F)c3[nH]2)c(OC(F)(F)F)cn1CCO` [Compound 410, 4-(3-(7-fluoro-5-(trifluoromethyl)-1H-indol-2-yl)-4H-1,2,4-triazol-4-yl)-1-(2-hydroxyethyl)-5-(trifluoromethoxy)pyridin-2(1H)-one], the IC50 was at most 100 nM.

As for `OCC1(c2ccc3[nH]c(-c4nncn4-c4cccc(Cl)c4Cl)nc3c2)CCC1` [Example 130], the IC50 was at most 100 nM.

For the molecule `FC(F)(F)c1ccc2[nH]c(-c3nnc(CN4CCC4)n3-c3cccc(Cl)c3Cl)nc2c1` [Example 125], the IC50 is at most 100 nM.

With `Fc1cccc(-n2cnnc2-c2nc3cc(C(F)(F)F)ccc3[nH]2)c1Cl` [Example 59, 2-(4-(2-chloro-3-fluorophenyl)-4H-1,2,4-triazol-3-yl)-5-(trifluoromethyl)-1H-benzo[d]imidazole], the IC50 is at most 100 nM.

For the molecule `Cc1ncsc1-n1cnnc1-c1nc2cc(C(F)(F)F)ccc2[nH]1` [Compound 272, 4-methyl-5-(3-(5-(trifluoromethyl)-1H-benzo[d]imidazol-2-yl)-4H-1,2,4-triazol-4-yl)thiazole], the IC50 was over 1000 nM.

As to `OC1(c2ccc3[nH]c(-c4nncn4-c4ccc(F)c(F)c4Cl)nc3c2)CC1` [Example 134], the IC50 was at most 100 nM.

For `N#CC1(c2cccc3[nH]c(-c4nncn4-c4cnccc4C(F)(F)F)nc23)CC1` [Compound 442, 1-(2-(4-(4-(trifluoromethyl)pyridin-3-yl)-4H-1,2,4-triazol-3-yl)-1H-benzo[d]imidazol-4-yl)cyclopropane-1-carbonitrile], the IC50 lay in the range of 100 to 500 nM.

For the molecule `Cc1nocc1-n1cnnc1-c1nc2cc(C(F)(F)F)ccc2[nH]1` [Compound 269, 3-methyl-4-(3-(5-(trifluoromethyl)-1H-benzo[d]imidazol-2-yl)-4H-1,2,4-triazol-4-yl)isoxazole], the IC50 was over 1000 nM.

With `FC(F)(F)c1ccc2[nH]c(-c3nncn3-c3cnccc3C(F)(F)F)c(-c3ncccn3)c2c1` [Compound 428, 3-pyrimidin-2-yl-5-(trifluoromethyl)-2-[4-[4-(trifluoromethyl)-3-pyridyl]-1,2,4-triazol-3-yl]-1H-indole], the IC50 is at most 100 nM.

On to `FC(F)(F)c1ccc2[nH]c(-c3nncn3-c3c(C(F)(F)F)ccn4nccc34)nc2c1` [Compound 309, 5-(trifluoromethyl)-2-(4-(5-(trifluoromethyl)pyrazolo[1,5-a]pyridin-4-yl)-4H-1,2,4-triazol-3-yl)-1H-benzo[d]imidazole], for which the IC50 was at most 100 nM.

For the molecule `C=Cc1ccc2[nH]c(-c3nncn3-c3cnccc3C(F)(F)F)nc2c1` [Compound 276, 2-(4-(4-(trifluoromethyl)pyridin-3-yl)-4H-1,2,4-triazol-3-yl)-5-vinyl-1H-benzo[d]imidazole], the IC50 was at most 100 nM.

With `Nc1nnc(-c2nc3cc(C(F)(F)F)ccc3[nH]2)n1-c1cccc(F)c1Cl` [Compound 396, 4-(2-chloro-3-fluorophenyl)-5-(5-(trifluoromethyl)-1H-benzo[d]imidazol-2-yl)-4H-1,2,4-triazol-3-amine], the IC50 is at most 100 nM.

The values above are taken from patent US20260258064A1 (SIRONAX LTD., priority 2023, published 2026).
